Peptide text beside a SMILES is read from it.
Legend:
[1] = In vivo toxicity of TP3, intramuscular injection, blood biochemistry; settings: mice, i.m. 2 mg/mouse
Description: To determine the toxicity of TP3, TP3 was dissolved in phosphate-buffered saline (PBS; pH 7.4) and administered as intramuscular bolus injections in the left thigh (2 mg/mouse). […] To study the effect of treatment on biochemistry, mice (n=6 in each group) were treated with PBS (control). Blood samples (0.2 ml) were collected day 1, 3 and 6 after the final injection of TP3, and used to determine the serum levels of glutamic oxaloacetic transaminase (GOT), glutamic pyruvic transaminase (GPT), blood urea nitrogen (BUN), creatinine (CRE), total glucose (GLU), and creatine phosphokinase (CPK).

[2] = test system: MRSA; settings: 24 h
[3] = test system: MRSA; assay: Mouse wound healing model, wound closure and microbial load, TP3; type: in vivo, Balb/c mice
Description: Female Balb/c mice (6-8 weeks old) were used for wound healing experiments. All mice were housed individually to prevent fighting and further damage to the wounds, and they were provided with food and water ad libitum. Mice were maintained on a 12 h light: dark cycle at room temperature, and acclimatized to the environment for at least a week before use in experiments. All researchers wore caps, sterile gloves, gowns, and shoe covers when handling mice. Hair was removed from the back of the mice by shaving, and a full thickness wound (1 cm in diameter) was then created in the exposed region. Each wound was inoculated with 50 μl of broth mix containing 10^6 cfu (colony forming units) of S. aureus. At 5 min after inoculation, 50 μl TP3 (2 mg/ml) in a total volume of 0.1 ml were applied. Thirty minutes after treatment, wounds were covered with Tegaderm (3M, St. Paul, Minn.) to maintain uniformity, and to prevent the mice from removing the treatments. Based on initial experiments, we examined the wounds at 0, 3, 5 and 19 days post-injury, so as not to disturb the infection. Such examinations captured the transitions from inflammatory to regenerative, and regenerative to resolving phases of wound healing. Animals were subsequently euthanized by CO2 inhalation and the wounds assessed. Four individuals in each group were examined at each time point for each experiment. Each wound was measured and then removed from the animal, with unwounded skin taken from the contralateral dorsum as a control. Each biopsy was bisected with three sections being used for tensiometry and histology, and two sections for quantitative determination of microbial load. Wound healing studies were repeated in triplicate.
Tracings were taken immediately after injury. For uncontaminated wounds, wound size was determined every second day. For contaminated wounds, mice were euthanized at days 3, 5, 19 and tracings of the wound edges were made. Wound areas were determined using the Macintosh Adobe Photoshop program, Histogram Analysis. The percentage of wound contraction was calculated as follows: % Wound contraction=(A0−At)/A0×100, where A0 is the original wound area, and At is the area of wound at the time of biopsy on every two days, accordingly.
Multidrug-resistant strains of Staphylococcus aureus commonly associated with human wound infections were selected to generate a polymicrobial solution. The MRSA strain is a clinical isolate from stool obtained from Taipei City Hospital (Heping Fuyou branch). The initial inoculum was prepared by culturing aerobic bacteria in Tryptic Soy Broth (TSB) overnight at 37° C. Broths were subsequently centrifuged at 1000 rpm for 15 min, and resuspended in TSB with 15% glycerol, or chopped meat extract with 15% glycerol (for aerobic bacteria). The concentration was adjusted to 10^6 cfu/50 μl, and stored at −80° C. Prior to wound application, […]

[4] = test system: MRSA; assay: Mouse model of MRSA sepsis, TP4; type: in vivo, Balb/c mice; settings: for Mean ± SD count, Blood / Mean ± SD count, Liver / Mean ± SD count, Mesenteric lymph nodes / Mean ± SD count, Peritoneum / Mean ± SD count, Spleen: 48 hours after the last treatment; for survival rate: 8 days after MRSA infection, i.p. 10 min after MRSA, TP4 0.005 mg/g, vancomycin and methicillin 0.01 mg/g; for % lethality: monitored for 2 day after injection, MRSA 10^6 CFU i.p.
Description: (§1) Female Balb/c mice (6-8 weeks old) were injected intraperitoneally with 10^6 CFU MRSA per mouse. Ten minutes after MRSA injection, mice were injected intraperitoneally with vancomycin (0.01 mg/g mouse body weight), methicillin (0.01 mg/g mouse body weight), or TP4 (0.005 mg/g mouse body weight). In a second set of experiments, mice were given intraperitoneal injections of TP4 (0.005 mg/g mouse body weight) at 10, 60, 120, or 180 min after MRSA injection. Survival rate and status were recorded every 24 h for up to 192 h. To examine bacterial dissemination, mice were sacrificed at 48 h after injection with antibiotics or TP4, and the bacterial numbers in blood, peritoneum, spleen, liver, and mesenteric lymph nodes were recorded. Colony counts from the diluted bacterial solutions were expressed relative to those at the start of treatment. These experiments consisted of four groups, and each group contained 10 mice.
Infected mice were untreated, or treated with TP4, methicillin, or vancomycin via i.p. injection. Bacterial numbers in blood, peritoneum, spleen, liver, and mesenteric lymph nodes were subsequently recorded. Colony counts from the diluted bacterial solutions are expressed relative to those at the start of treatment. Each value represents the mean value from three determinations±standard deviation (SD).

[5] = test system: MRSA; assay: Mouse model of MRSA sepsis, TP3; type: in vivo, Balb/c mice; settings: for Mean ± SD count, Blood / Mean ± SD count, Liver / Mean ± SD count, Mesenteric lymph nodes / Mean ± SD count, Peritoneum / Mean ± SD count, Spleen: 48 h after injection; for survival rate: 8 days after MRSA infection, i.p. 10 min after MRSA, TP3 0.005 mg/g, vancomycin and methicillin 0.01 mg/g; for % lethality: monitored for 2 day after injection, MRSA 1 × 10^6 CFU i.p.
Description: as §1, with “weight), methicilin” for “weight), methicillin”, “or TP3” for “or TP4”, “of TP3” for “of TP4”, “injection. The survival” for “injection. Survival”, “or TP3,” for “or TP4,”, “contained 5” for “contained 10”

[6] = test system: MRSA; assay: Histology and IHC of wound tissue, TP3; type: in vivo, Balb/c mice; settings: wounds
Description: Skin tissues were removed and fixed as previously described. In brief, the cryosections were fixed with 4% formaldehyde, and the tissue samples were stained with hematoxylin/eosin, Giemsa, or Gram stain. IHC was analyzed by three independent investigators. Images were taken using a BX-51 microscope (Olympus, Japan).

Row | SMILES | Bacterial Count ([3]; day 0) | Bacterial Count ([3]; day 5) | Mean ± SD count, Blood [4] | Mean ± SD count, Liver [4] | Mean ± SD count, Mesenteric lymph nodes [4] | Mean ± SD count, Peritoneum [4] | Mean ± SD count, Spleen [4] | survival rate [4] [%] | % lethality [4] | Mean ± SD count, Blood [5] | Mean ± SD count, Liver [5] | Mean ± SD count, Mesenteric lymph nodes [5] | Mean ± SD count, Peritoneum [5] | Mean ± SD count, Spleen [5] | survival rate [5] [%] | % lethality [5] | other results
1 | CC[C@H](C)[C@H](NC(=O)[C@H](CC(C)C)NC(=O)[C@H](CO)NC(=O)[C@H](Cc1c[nH]cn1)NC(=O)[C@@H](NC(=O)[C@H](Cc1c[nH]cn1)NC(=O)[C@H](CCCCN)NC(=O)CNC(=O)[C@@H](NC(=O)[C@H](CO)NC(=O)[C@H](Cc1ccccc1)NC(=O)[C@H](CC(C)C)NC(=O)CNC(=O)CNC(=O)[C@@H](NC(=O)[C@@H](NC(=O)[C@H](Cc1c[nH]cn1)NC(=O)[C@H](Cc1c[nH]cn1)NC(=O)[C@@H](NC(=O)[C@@H](N)Cc1ccccc1)[C@@H](C)CC)[C@@H](C)CC)[C@@H](C)CC)C(C)C)[C@@H](C)CC)C(=O)N[C@@H](Cc1c[nH]cn1)C(=O)NCC(=O)N[C@@H](Cc1c[nH]cn1)C(=O)O [TP3, Tilapia piscidin 3] (H-FIHHIIGGLFSVGKHIHSLIHGH-OH) | – | – | – | – | – | – | – | – | – | – | – | – | – | – | – | – | BUN ([1]; day 1): 15.2 ± 2.4^A mg/dl; CPK ([1]; day 1): 114 ± 21.9^A U/l; GLU ([1]; day 1): 258.6 ± 28.2^AB mg/dl; GOT ([1]; day 1): 122.6 ± 25.7^C U/l; GPT ([1]; day 1): 71.3 ± 8.6^C U/l; BUN ([1]; day 3): 17.4 ± 2.3^A mg/dl; CPK ([1]; day 3): 88.3 ± 5.8^B U/l; GLU ([1]; day 3): 219.8 ± 8.2^A mg/dl; GOT ([1]; day 3): 47.3 ± 5.9^A U/l; GPT ([1]; day 3): 36.2 ± 2.7^AB U/l; BUN ([1]; day 6): 20.2 ± 1.8^AB mg/dl; CPK ([1]; day 6): 129 ± 15.3^AB U/l; GLU ([1]; day 6): 290.8 ± 53.5^B mg/dl; GOT ([1]; day 6): 46 ± 8.08^A U/l; GPT ([1]; day 6): 35 ± 5.9^AB U/l; minimal inhibitory concentration (MIC) [2]: > 3.9 µg/mL
2 | COc1cccc(OC)c1C(=O)N[C@@H]1C(=O)N2[C@@H]1SC(C)(C)[C@@H]2C(=O)O [methicillin] | 5.2 × 10^4 CFU/10 μl | Fatal | 4.1 × 10^7 ± 1.3 × 10^7B CFU/mL | 2.7 × 10^8 ± 3.3 × 10^8B CFU/mL | 4.1 × 10^7 ± 3 × 10^7C CFU/mL | 2.3 × 10^9 ± 2 × 10^9B CFU/mL | 1.5 × 10^8 ± 2.1 × 10^7B CFU/mL | 0 | 20^B % | 5.8 × 10^7 ± 1.7 × 10^7B CFU/ml | 3.7 × 10^8 ± 8.1 × 10^7B CFU/ml | 6.4 × 10^7 ± 5.3 × 10^7B CFU/ml | 4.9 × 10^9 ± 2.2 × 10^9B CFU/ml | 9.5 × 10^8 ± 1.9 × 10^8B CFU/ml | 0 | 20^B % | –
3 | CN[C@H](CC(C)C)C(=O)N[C@H]1C(=O)N[C@@H](CC(N)=O)C(=O)N[C@H]2C(=O)N[C@H]3C(=O)N[C@H](C(=O)N[C@H](C(=O)O)c4cc(O)cc(O)c4-c4cc3ccc4O)[C@H](O)c3ccc(c(Cl)c3)Oc3cc2cc(c3O[C@@H]2O[C@H](CO)[C@@H](O)[C@H](O)[C@H]2O[C@H]2C[C@](C)(N)[C@H](O)[C@H](C)O2)Oc2ccc(cc2Cl)[C@H]1O [vancomycin] | 4.9 × 10^4 CFU/10 μl | 2.6 × 10^3 CFU/10 μl | 8 × 10^4 ± 1.1 × 10^4B CFU/mL | 1.3 × 10^7 ± 1.8 × 10^3B CFU/mL | 1 × 10^7 ± 4 × 10^4B CFU/mL | 1.5 × 10^6 ± 1 × 10^3A CFU/mL | 1.4 × 10^7 ± 1.1 × 10^4B CFU/mL | 80 | 10^AB % | 8 × 10^3 ± 1.3 × 10^5B CFU/ml | 1.7 × 10^8 ± 3.8 × 10^7B CFU/ml | 2 × 10^8 ± 4.4 × 10^6A CFU/ml | 2.7 × 10^9 ± 1.5 × 10^9A CFU/ml | 1.8 × 10^3 ± 8.4 × 10^7B CFU/ml | 80 | 0^A % | Bacterial Count ([3]; day 3): 3 × 10^5 CFU/10 μl; Bacterial Count ([3]; day 19): 42 CFU/10 μl; overall epidermal maturation compared to the TP3 group [6]: displayed impairment in overall epidermal maturation

From US9925235B2, “Tilapia piscidins for use in enhancement of wound healing” (Academia Sinica, priority 2015, dated 2018)
